Assays:
Type in all cases: cell-based
[1] = test system: Chikungunya virus (CHIKV); experiment: microbe, parasite or virus in culture; details: Chikungunya virus, Vero, 48 h, read-out: Percent viral inhibition CHKV
dengue virus (DENV) = experiment: microbe, parasite or virus in culture; details: Dengue virus, Vero, 120 h, read-out: Percent viral inhibition DENY
Marburg virus (MARV) = experiment: organism not typed; details: Vero, 72 h, read-out: Percent viral inhibition MARV

SMILES | inhibition at 1 µM [1] | inhibition at 1 µM (dengue virus (DENV)) | inhibition at 1 µM (Marburg virus (MARV))
COC(=O)NCC1CCN(Cc2cc(Oc3cnc(N4CC5CCC(C4)N5CCC(=O)O)nc3)nc(-c3cc(Cl)cc(Cl)c3)c2)CC1 [Example 56, 3-(3-(5-((6-(3,5-dichlorophenyl)-4-((4-(((methoxycarbonyl)amino)methyl)piperidin-1-yl)methyl)pyridin-2-yl)oxy)pyrimidin-2-yl)-3,8-diazabicyclo[3.2.1]octan-8-yl) propanoic acid] | 31.3% | 57.1% | 60.9%
CC(CCN1CCN(c2ncc(Oc3cc(CN4CCC(CCO)CC4)cc(-c4cc(Cl)cc(Cl)c4)n3)cn2)CC1)C(=O)O (stereo not drawn) [Example 57, 4-(4-(5-((6-(3,5-dichlorophenyl)-4-((4-(2-hydroxyethyl)piperidin-1-yl)methyl)pyridin-2-yl)oxy)pyrimidin-2-yl)piperazin-1-yl)-2-methylbutanoic acid] | 21.1% | 37.6% | 54.4%
CCC(=O)NCC1CCN(Cc2cc(Oc3cnc(N4CCN(CCC(C)C(=O)O)CC4)nc3)nc(-c3cc(Cl)cc(Cl)c3)c2)CC1 (stereo not drawn) [Example 59, 4-(4-(5-((6-(3,5-dichlorophenyl)-4-((4-(propionamidomethyl)piperidin-1-yl)methyl)pyridin-2-yl)oxy)pyrimidin-2-yl)piperazin-1-yl)-2-methylbutanoic acid] | 35.1% | 53.7% | 57.5%
CC(O)CCN1CCN(c2ncc(Oc3cc(CN4CCC(F)CC4)cc(-c4cc(Cl)cc(Cl)c4)n3)cn2)CC1 (stereo not drawn) [Example 60, 4-(4-(5-((6-(3,5-dichlorophenyl)-4-((4-fluoropiperidin-1-yl)methyl)pyridin-2-yl)oxy)pyrimidin-2-yl)piperazin-1-yl)butan-2-ol] | 38.8% | 79% | 53.6%
COC(=O)NCC1CCN(Cc2cc(Oc3cnc(N4CCN(CCC(=O)O)CC4)nc3)nc(-c3cc(Cl)cc(Cl)c3)c2)CC1 [Example 62, 3-(4-(5-((6-(3,5-dichlorophenyl)-4-((4-(((methoxycarbonyl)amino)methyl)piperidin-1-yl)methyl)pyridin-2-yl)oxy)pyrimidin-2-yl)piperazin-1-yl)propanoic acid] | 35.2% | 19.1% | 19.9%
COC(=O)NCC1CCN(Cc2cc(Oc3cnc(N4CCN(C)CC4)nc3)nc(-c3cc(Cl)cc(Cl)c3)c2)CC1 [Example 63, methyl((1-((2-(3,5-dichlorophenyl)-6-((2-(4-methylpiperazin-1-yl)pyrimidin-5-yl)oxy)pyridin-4-yl)methyl)piperidin-4-yl)methyl)carbamate] | 0% | 2.35% | 14.7%
CC(=O)NCC1CCN(Cc2cc(Oc3cnc(N4CCN(C)CC4)nc3)nc(-c3cc(Cl)cc(Cl)c3)c2)CC1 [Example 64, N-((1-((2-(3,5-dichlorophenyl)-6-((2-(4-methylpiperazin-1-yl)pyrimidin-5-yl)oxy)pyridin-4-yl)methyl)piperidin-4-yl)methyl)acetamide] | 6.9% | 37% | 37.8%
CNC(=O)OCC1CCN(Cc2cc(Oc3cnc(N4CCN(C)CC4)nc3)nc(-c3cc(Cl)cc(Cl)c3)c2)CC1 [Example 66, (1-((2-(3,5-dichlorophenyl)-6-((2-(4-methylpiperazin-1-yl)pyrimidin-5-yl)oxy)pyridin-4-yl)methyl)piperidin-4-yl)methylmethylcarbamate] | 7.64% | 57.9% | 60.7%
CNC(=O)NCC1CCN(Cc2cc(Oc3cnc(N4CCN(C)CC4)nc3)nc(-c3cc(Cl)cc(Cl)c3)c2)CC1 [Example 70, 1-((1-((2-(3,5-dichlorophenyl)-6-((2-(4-methylpiperazin-1-yl)pyrimidin-5-yl)oxy)pyridin-4-yl)methyl)piperidin-4-yl)methyl)-3-methylurea] | 0% | 0% | 5.52%
CN1CCN(c2ncc(Oc3cc(CN4CCC(Cc5nnn[nH]5)CC4)cc(-c4cc(Cl)cc(Cl)c4)n3)cn2)CC1 [Example 72, 5-((4-((4-((1H-tetrazol-5-yl)methyl)piperidin-1-yl)methyl)-6-(3,5-dichlorophenyl)pyridin-2-yl)oxy)-2-(4-methylpiperazin-1-yl)pyrimidine] | 33.7% | 11.2% | 55.8%
CNC(=O)OCC1CCN(Cc2cc(Oc3ccc(N4CCN(CCC(=O)O)CC4)nc3)nc(-c3cc(Cl)cc(Cl)c3)c2)CC1 [Example 77, 3-(4-(5-((6-(3,5-dichlorophenyl)-4-((4-(((methylcarbamoyl)oxy)methyl)piperidin-1-yl)methyl)pyridin-2-yl)oxy)pyridin-2-yl)piperazin-1-yl) propanoic acid] | 42% | 20.6% | 57.2%
CS(=O)(=O)N[C@H]1[C@@H]2CCN(Cc3cc(Oc4cnc(N5CCN(CCC(=O)O)CC5)nc4)nc(-c4cc(Cl)cc(Cl)c4)c3)CC[C@@H]21 [Example 80, 3-(4-(5-((6-(3,5-dichlorophenyl)-4-(((1R,7S,8r)-8-(methylsulfonamido)-4-azabicyclo[5.1.0]octan-4-yl)methyl)pyridin-2-yl)oxy)pyrimidin-2-yl)piperazin-1-yl)propanoic acid] | 25% | 0% | 64.6%
CC(CCN1CCN(c2ncc(Oc3cc(CN4CC[C@@H]5[C@H](CC4)[C@H]5NS(C)(=O)=O)cc(-c4cc(Cl)cc(Cl)c4)n3)cn2)CC1)C(=O)O (stereo partly drawn) [Example 81, 4-(4-(5-((6-(3,5-dichlorophenyl)-4-(((1R,7S,8r)-8-(methylsulfonamido)-4-azabicyclo[5.1.0]octan-4-yl)methyl)pyridin-2-yl)oxy)pyrimidin-2-yl)piperazin-1-yl)-2-methylbutanoic acid] | 26.1% | 50.5% | 73.7%
CC(=O)N[C@H]1[C@@H]2CCN(Cc3cc(Oc4cnc(N5CCN(CCC(C)C(=O)O)CC5)nc4)nc(-c4cc(Cl)cc(Cl)c4)c3)CC[C@@H]21 (stereo partly drawn) [Example 82, 4-(4-(5-((4-(((1R,7S,8r)-8-acetamido-4-azabicyclo[5.1.0]octan-4-yl)methyl)-6-(3,5-dichlorophenyl)pyridin-2-yl)oxy)pyrimidin-2-yl)piperazin-1-yl)-2-methylbutanoic acid] | 18.4% | 19.8% | 53.2%
CC(CCN1CCN(c2ncc(Oc3cc(CN4CCCC4)cc(-c4cc(Cl)cc(Cl)c4)n3)cn2)CC1)C(=O)O (stereo not drawn) [Example 83, 4-(4-(5-((6-(3,5-dichlorophenyl)-4-(pyrrolidin-1-ylmethyl)pyridin-2-yl)oxy)pyrimidin-2-yl)piperazin-1-yl)-2-methylbutanoic acid] | 33.4% | 28.9% | 53.8%
CN1CCN(c2ncc(Oc3cc(CN4CCC(CCS(N)(=O)=O)CC4)cc(-c4cc(Cl)cc(Cl)c4)n3)cn2)CC1 [Example 87, 2-(1-((2-(3,5-dichlorophenyl)-6-((2-(4-methylpiperazin-1-yl)pyrimidin-5-yl)oxy)pyridin-4-yl)methyl)piperidin-4-yl)ethanesulfonamide] | 16.9% | 30.2% | 30.3%
